# Measurements reported in PMC4500896, “Frog intestinal perfusion to evaluate drug permeability: application to p-gp and cyp3a4 substrates” (Frontiers in Pharmacology, 2015).
# What was measured:
# [1] = Frog in situ single pass intestinal perfusion (SPIP), parallel-tube model; details: Rana tigrina (frog), pH 7.4
# [2] = test system: rat everted gut sac; details: rat everted gut sac model; ref c (footnote not given); cited from earlier work
# [3] = test system: frog intestine; details: in vivo
# [4] = test system: human intestinal permeability; design: method as in a (footnote not given); details: reported human Peff; ref a (footnote not given); cited from earlier work
# [5] = test system: Caco-2; design: method as in b (footnote not given); details: Caco-2 cell data; ref b (footnote not given); cited from earlier work
# [6] = test system: frog intestine; test: Frog in situ single pass intestinal perfusion (SPIP), parallel-tube model; details: non-absorbable marker in outlet perfusate, frog SPIP
structure (smiles),measurement,setting,value
Cc1ncc2n1-c1ccc(Cl)cc1C(c1ccccc1F)=NC2 [Midazolam],Papp at 90 min,[1],203 ± 7 ×10⁻⁶ cm/s
same,"Effective permeability coefficient, Rat",[2],2.08 ± 0.50^c 10^-4cm s^-1
CCCCc1nc(Cl)c(CO)n1Cc1ccc(-c2ccccc2-c2nn[nH]n2)cc1 [Losartan],Papp at 90 min,[1]; other: in situ single pass intestinal perfusion,42.7 ± 27 ×10⁻⁶ cm/s
same,Change in Peff of the probe drug when co-perfused with inhibitors,[3],significant change in Peff was observed
same,"Effective permeability coefficient, Human",[4],1.15^a 10^-4cm s^-1
same,"Effective permeability coefficient, Caco-2",[5],0.022^b 10^-4cm s^-1
O=S1(=O)OC(c2ccc(O)cc2)(c2ccc(O)cc2)c2ccccc21 [phenol red],Recovery of phenol red,[6],98.3 ± 1.0%
